# pIC50: −log10 of the molar value.
# Legend:
# [1] = Fecal recovery of orally administered compounds; format: in vivo, Sprague-Dawley rats; conditions: Structure (I) examples, Table 16; rat, oral gavage, feces collected until 48 hr after dosing
# From the text: (§1) The animals were kept in metabolic cages and feces were collected from the time of dosing until 48 hr after dosing. Upon collection, feces were dried by lyophilization and ground to a visually homogenous powder. Duplicate samples of ground feces from each individual animal were weighed out and extracted using organic solvent. […] Extraction conditions were not optimized for individual compounds, and thus may represent a minimal level of recovery.
# as §1, with “collection, feces was dried by” for “collection, feces were dried by”
# as §1, with “collection, feces was dried by” for “collection, feces were dried by”
# The animals were kept in metabolic cages and feces were collected from the time of dosing until 48 hr after dosing. Upon collection, feces was dried by lyophilization and ground to a visually homogenous powder. Duplicate samples of ground feces from each individual animal were weighed out and extracted using organic solvent.
# [2] = biological target: T1, rat NaP2b (SLC34A2) (Rattus norvegicus, UniProt Q9JJ09); assay: Inhibition of NaP2b-mediated Pi (33P) uptake in transfected HEK293 cells, rat NaP2b; format: cell-based; conditions: 33P Pi uptake, 0.1 mM phosphate, value given as pIC50 range
# T1 construct: host or cells: HEK293
# T1 sequence (Q9JJ09 1-695): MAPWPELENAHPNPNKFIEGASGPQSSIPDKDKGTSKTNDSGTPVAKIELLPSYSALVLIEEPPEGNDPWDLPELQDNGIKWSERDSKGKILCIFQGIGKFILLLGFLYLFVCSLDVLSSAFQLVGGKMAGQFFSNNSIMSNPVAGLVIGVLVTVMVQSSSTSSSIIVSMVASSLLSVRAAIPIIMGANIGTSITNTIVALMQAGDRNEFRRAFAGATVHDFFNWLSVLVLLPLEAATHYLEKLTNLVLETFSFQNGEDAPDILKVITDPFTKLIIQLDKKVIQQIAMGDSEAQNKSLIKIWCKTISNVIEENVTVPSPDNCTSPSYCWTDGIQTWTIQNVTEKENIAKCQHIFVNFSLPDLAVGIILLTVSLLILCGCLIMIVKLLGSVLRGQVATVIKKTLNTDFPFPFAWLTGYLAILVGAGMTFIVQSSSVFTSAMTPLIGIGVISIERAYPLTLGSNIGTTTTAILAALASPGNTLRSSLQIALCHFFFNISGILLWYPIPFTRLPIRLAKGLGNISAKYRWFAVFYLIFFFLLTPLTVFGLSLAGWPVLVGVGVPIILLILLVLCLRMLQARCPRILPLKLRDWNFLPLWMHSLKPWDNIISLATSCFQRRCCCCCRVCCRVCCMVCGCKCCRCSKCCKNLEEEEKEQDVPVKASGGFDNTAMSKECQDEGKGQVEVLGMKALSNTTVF
# Method in brief: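 HEK293 cells were transiently transfected with NaP2b cDNA using Lipofectamine and grown near confluence. Compounds were tested at twelve concentrations from 0.1 nM to 30 uM in duplicate, and 33P-phosphate uptake was counted by scintillation after lysis. Results are expressed as pIC50.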
# [3] = Stability of compounds in simulated gastric fluid (SGF); format: in vitro ADME; conditions: simulated gastric fluid (3 mg/mL pepsin), incubation time 6 hr, relative to t=0
# Method in brief: (§2)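 Compounds at […] were incubated 3 or 6 hr in USP simulated gastric fluid with 3 mg/mL pepsin or simulated intestinal fluid with 3 mg/mL pancreatin. Remaining compound was quantified by HPLC-UV or HPLC-MS peak area % and reported as percent of the t=0 level in the same medium.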
# [4] = biological target: T2, human NaP2b (SLC34A2) (Homo sapiens, UniProt O95436); assay: Inhibition of NaP2b-mediated Pi (33P) uptake in transfected HEK293 cells, human NaP2b; format: cell-based; conditions: read-out: pIC50 range for human NaP2b (converted)
# T2 construct: host or cells: HEK293
# T2 sequence (O95436 1-690): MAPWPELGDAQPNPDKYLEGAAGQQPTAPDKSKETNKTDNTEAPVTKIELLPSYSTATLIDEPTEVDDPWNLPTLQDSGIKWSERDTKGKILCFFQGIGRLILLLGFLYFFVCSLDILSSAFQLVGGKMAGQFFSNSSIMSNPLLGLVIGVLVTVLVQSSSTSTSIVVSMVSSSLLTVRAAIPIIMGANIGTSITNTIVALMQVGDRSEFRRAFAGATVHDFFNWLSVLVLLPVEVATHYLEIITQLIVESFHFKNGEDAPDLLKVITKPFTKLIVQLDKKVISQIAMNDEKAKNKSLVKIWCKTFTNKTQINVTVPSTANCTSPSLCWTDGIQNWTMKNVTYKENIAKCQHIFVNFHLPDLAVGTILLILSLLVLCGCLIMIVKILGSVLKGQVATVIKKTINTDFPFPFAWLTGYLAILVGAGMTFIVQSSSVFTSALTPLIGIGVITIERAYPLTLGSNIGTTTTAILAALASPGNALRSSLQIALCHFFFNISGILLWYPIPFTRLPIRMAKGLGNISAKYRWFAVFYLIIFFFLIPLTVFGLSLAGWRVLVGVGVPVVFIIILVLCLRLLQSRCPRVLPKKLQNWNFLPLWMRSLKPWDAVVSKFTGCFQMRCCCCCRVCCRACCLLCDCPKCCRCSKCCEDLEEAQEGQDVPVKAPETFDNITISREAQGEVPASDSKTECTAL
# Method in brief: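 HEK293 cells transiently transfected with human NaP2b (Thr inserted after residue 37, N39D), endogenous PiT transport pharmacologically silenced. Sodium or choline buffer, pH 7.4, with 100 uM KH2PO4, 33P orthophosphate and compound (0.1 nM–30 uM, twelve concentrations, duplicate). 3-30 min at room temperature, scintillation counting, pIC50 derived.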
# [5] = Stability of compounds in simulated intestinal fluid (SIF); format: in vitro ADME; conditions: simulated intestinal fluid (3 mg/mL pancreatin), incubation time 6 hr, relative to t=0
# Method in brief: as §2
# [6] = system: Uptake of Phosphorus from the Intestine; assay: In vivo co-dosing in chow (urine P out / P consumed); conditions: Rattus norvegicus, feed or water, rats, compound in chow, read-out: Mean % inhibition Urine Pout/P consumed; for inhibition in vivo at 100 mg/kg/day: mean drug dose 100 mg/kg/day
# From the text: Male, 7-week-old Sprague-Dawley rats (Charles-River laboratories international, Hollister, Calif.) were allowed to acclimate for a minimum of 3 days. The experiment was initiated by switching animals to a synthetic diet (0.6% phosphorus and 0.6% calcium, Harlan Teklad TD.84122) for four days. After this time, the animals were placed into metabolic cages for daily monitoring of food and water consumption, as well as urine and fecal collections. Test compounds were incorporated into the powdered diet listed above containing 3% chocolate flavoring (w/w, BioServ #7345) at 1.3 mg test compound per gram of diet to achieve an average daily nominal dose of 100 mg/kg/day. The actual dose received by each animal was later determined by measuring prepared diet consumption and body weight. Urine samples were collected in three daily periods from 24-48, 48-72, and 72-96 hours of drug dosing. Averaging these three 24 h periods allows for the more representative measurements of urination, fecal excretion, food consumption and water uptake for each animal. Phosphorus levels in the urine were determined by anion exchange chromatography using a Dionex ICS-3000 ion chromatography system. Urine samples were diluted 1:500 or 1:1000 and injected onto an IonPac AS18 analytical column (2×250 mm) using a potassium hydroxide eluent. Elution of urine phosphate ions was monitored via conductivity detector and reported as ppm relative to a standard ion solution containing phosphate. Daily urinary P output relative to the P consumed in the prepared diet for each animal was calculated. The percentage inhibition of phosphorus absorption was estimated by determining the reduction of this ratio compared to the control group (animals with no drug in chow). The differences between the means of control and treated groups were evaluated by t tests. In all experiments, one group was always included that had Renvela powder blended into their chow at 0.9% targeting a dose of 750 mg/kg.
# [7] = Determination of compound Cmax and AUC after oral gavage (plasma LC-MS/MS); format: in vivo, Sprague-Dawley rats; conditions: Sprague-Dawley, rat, plasma, po, Structure (I) examples
# Method in brief: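 Sprague-Dawley rats dosed by oral gavage at nominal 2.5 or 10 mg/kg; blood drawn at 0.5, 1, 2 and 4 h into K2EDTA. Plasma protein-precipitated with acetonitrile plus internal standard and analysed by LC-MS/MS against a plasma standard curve to derive Cmax and AUC.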
# [8] = Table 15, actual oral dose 3-15 mg/kg, plasma 0.5-4 h
% recovered in feces [1],pIC50 [2],"% remaining, SGF [3]",IC50 [4],"% remaining, SIF [5]","AUC ([7]; Table 15, actual oral dose 15-40 mg/kg, plasma 0.5-4 h)","Cmax ([7]; Table 15, plasma 0.5-4 h)","AUC [7, 8]","Cmax [7, 8]",Compound,inhibition in vivo at 100 mg/kg/day [6],inhibition in vivo at 90 mg/kg/day ([6]; mean drug dose 90 mg/kg/day),inhibition in vivo at 130 mg/kg/day ([6]; mean drug dose 130 mg/kg/day)
–,5.10 to 6.00,>80%,< 1000 nM,60-80%,–,–,–,–,"CCN(CC)c1ccc(NC(=O)c2cccc(CSCCOCCOCCOCCOCCC(=O)N(CCO)CCO)c2)c(-c2cc(C(=O)NCc3cccc(C(F)(F)F)c3)ccn2)c1 [Example 164, 2-(5-(diethylamino)-2-(3-(20-hydroxy-18-(2-hydroxyethyl)-17-oxo-5,8,11,14-tetraoxa-2-thia-18-azaicosyl)benzamido)phenyl)-N-(3-(trifluoromethyl)benzyl)isonicotinamide]",≤ 10%,–,–
–,> 6.00,>80%,< 1000 nM,>80%,–,–,–,–,"CCN(CC)c1ccc(NC(=O)c2cccc(COCCOCCOCCOCCOCCOCCOCCOCCOC)c2)c(-c2cc(C(=O)NCc3cccc(C(F)(F)F)c3)ccn2)c1 [Example 173, 2-(2-(3-2,5,8,11,14,17,20,23,26-nonaoxaheptacosylbenzamido)-5-(diethylamino)phenyl)-N-(3-(trifluoromethyl)benzyl)isonicotinamide]",–,≤ 10%,–
–,5.10 to 6.00,>80%,1000 to 7940 nM,>80%,–,–,–,–,"CCN(CC)c1ccc(NC(=O)c2cccc(C(=O)N(C)CCN3CCC[C@H]3C(=O)NCCOCCOCCOCCOCCOCCOCCOCCOC)c2)c(-c2cc(C(=O)NCc3cccc(C(F)(F)F)c3)ccn2)c1 [Example 203, (S)—N^1-(2-(2-(2,5,8,11,14,17,20,23-octaoxapentacosan-25-ylcarbamoyl)pyrrolidin-1-yl)ethyl)-N^3-(4-(diethylamino)-2-(4-((3-(trifluoromethyl)benzyl)carbamoyl)pyridin-2-yl)phenyl)-N^1-methylisophthalamide]",≤ 10%,–,–
–,5.10 to 6.00,>80%,–,>80%,–,–,< 10 ng·h/mL,< 10 ng/mL,"CCN(CC)c1ccc(NC(=O)c2cccc(C(=O)N(C)CCN3CCN(CCOCCOCCOCCOCCOCCOCCOC)C(=O)C3)c2)c(-c2cc(C(=O)N[C@H]3CCCc4ccccc43)ccn2)c1 [Example 327, (S)—N1-(2-(4-(2,5,8,11,14,17,20-heptaoxadocosan-22-yl)-3-oxopiperazin-1-yl)ethyl)-N3-(4-(diethylamino)-2-(4-(1,2,3,4-tetrahydronaphthalen-1-ylcarbamoyl)pyridin-2-yl)phenyl)-N1-methylisophthalamide]",10 to 30%,–,–

# The remaining lines, values behind:
Compound,% recovered in feces [1],pIC50 [2],"% remaining, SGF [3]",IC50 [4],"% remaining, SIF [5]","AUC ([7]; Table 15, actual oral dose 15-40 mg/kg, plasma 0.5-4 h)","Cmax ([7]; Table 15, plasma 0.5-4 h)","AUC [7, 8]","Cmax [7, 8]",inhibition in vivo at 100 mg/kg/day [6],inhibition in vivo at 90 mg/kg/day ([6]; mean drug dose 90 mg/kg/day),inhibition in vivo at 130 mg/kg/day ([6]; mean drug dose 130 mg/kg/day)
O=C(NCc1cccc(C(F)(F)F)c1)c1ccnc(-c2cc(N3CCCCC3)ccc2NC(=O)c2cccc(CSCCCO)c2)c1 [Example 8.3],<20%,5.10 to 6.00,–,–,–,–,–,–,–,–,–,–
"CCN(CC)c1ccc(NC(=O)c2cccc(CSCCOCCOCCOCCOCCC(=O)NC(CO)(CO)CO)c2)c(-c2cc(C(=O)NCc3cccc(C(F)(F)F)c3)ccn2)c1 [Example 163, 2-(5-(diethylamino)-2-(3-(20-hydroxy-19,19-bis(hydroxymethyl)-17-oxo-5,8,11,14-tetraoxa-2-thia-18-azaicosyl)benzamido)phenyl)-N-(3-(trifluoromethyl)benzyl)isonicotinamide]",–,5.10 to 6.00,>80%,1000 to 7940 nM,60-80%,–,–,–,–,≤ 10%,–,–
"CN(CCOCCOCCOCCC(=O)O)C(=O)c1cccc(C(=O)Nc2ccc(Cl)cc2-c2cc(C(=O)N[C@H]3CCCc4ccccc43)ccn2)c1 [Example 237, (S)-1-(3-(4-chloro-2-(4-(1,2,3,4-tetrahydronaphthalen-1-ylcarbamoyl)pyridin-2-yl)phenylcarbamoyl)phenyl)-2-methyl-1-oxo-5,8,11-trioxa-2-azatetradecan-14-oic acid]",–,5.10 to 6.00,>80%,–,>80%,–,–,–,–,–,–,≤ 10%
"CCN(CC)c1ccc(NC(=O)c2cccc(CCCOCCOCCOCCOCCNC(=O)c3cccc(CCCOCCOCCOCCOCCOCCOCCOCCOCCOC)c3)c2)c(-c2cc(C(=O)NCc3cccc(C(F)(F)F)c3)ccn2)c1 [Example 271, 2-(2-(3-(1-(3-(2,5,8,11,14,17,20,23,26-nonaoxanonacosan-29-yl)phenyl)-1-oxo-5,8,11,14-tetraoxa-2-azaheptadecan-17-yl)benzamido)-5-(diethylamino)phenyl)-N-(3-(trifluoromethyl)benzyl)isonicotinamide]",20-80%,5.10 to 6.00,–,–,–,> 50 ng·h/mL,< 30 ng/mL,–,–,–,–,–

# From patent US20140023611A1 (priority 2010, published 2014)
